How the values were obtained:
[1] = test system: disseminated MV4;11-mCLP leukemia; test: MV4;11 xenograft model in NSG mice; assay type: in vivo, mouse
Experimental: The MV4;11 xenograft model was performed as previously described (Etchin, J. et al. Antileukemic activity of nuclear export inhibitors that spare normal hematopoietic cells. Leukemia 27, 66-74 (2013)). Two-million MV4; 11-mCLP cells were injected into the tail vein of 7-week-old female non-obese diabetic-severe combined immuno-deficient (NOD-SCID)Il2rg^−/− (NSG) mice (The Jackson Laboratory) and tumour burden was assessed by bioluminescence imaging (BLI) using an IVIS Spectrum system (Caliper Life Sciences). […] After 30 days, blood counts were obtained (Hemavet 950 F, Drew Scientific) and spleen, femur and peripheral blood cells were collected and analysed by flow cytometry (LSR Fortessa, BD Biosciences) from three mice per group, having the highest, lowest and median BLI value. […] Survival was measured as the time from therapy initiation until moribund state. […]
The MV4;11 xenograft model was performed as previously described (Etchin, J. et al. Antileukemic activity of nuclear export inhibitors that spare normal hematopoietic cells. Leukemia 27, 66-74 (2013)). Two-million MV4;11-mCLP cells were injected into the tail vein of 7-week-old female non-obese diabetic-severe combined immuno-deficient (NOD-SCID)Il2rg-^−/− (NSG) mice (The Jackson Laboratory) and tumour burden was assessed by bioluminescence imaging (BLI) using an IVIS Spectrum system (Caliper Life Sciences). […]

CDK8/Cyclin C = target: T1, CDK8/Cyclin C (Homo sapiens, UniProt P49336); test: In vitro radiometric protein kinase assay (PanQinase); assay type: biochemical; details: FIG. 8
T1 construct: purchased ProQinase GmbH
Text: A radiometric protein kinase assay was used (PanQinase activity assay; performed by ProQinase GmbH) as described (Hutterer, C. et al. Antimicrob. Agents Chemother. 59, 2062-2071 (2015)).

CDK8 W105M = target: T2, CDK8 W105M (Homo sapiens, UniProt P49336, W105M); test: Drug resistant allele growth assay in MOLM-14 cells; assay type: cell-based; details: expression of CDK8 W105M; FIG. 9
T2 construct: host or cells: MOLM-14 cells, lentiviral transduction (pLVX-EF1alpha-IRES vectors)
Experimental: 5′-Flag-tagged CDK8 and CDK19 were cloned from pBabe.puro.CDK8.flag (Addgene 19758) and F-CDK8L (Addgene 24762) into pLVX-EF1alpha-IRES-mCherry and pLVX-EF1alpha-IRES-ZsGreen (Clontech) and transformed into E. coli (One Shot Stbl3, Invitrogen). Point mutations were introduced by whole-plasmid PCR (QuikChange II XL Site-Directed Mutagenesis Kit, Agilent). pLVX lentiviral vectors were co-transfected with psPASx and pMD2.G (Addgene) in 293T cells. After 48 h, viral supernatants were collected and passed through a 0.45 m filter (Millipore). For transductions, 24-well plates were coated with 500 μl of 20 μg ml RetroNectin (Clontech) at 4° C. overnight, blocked with 2% BSA for 30 min, washed with PBS, and 300-500 μl of viral supernatant was added. The plates were centrifuged (2,000 g, 1.5 h) and then set in an incubator. After 2 h, viral supernatant was removed and 500 μl per well of 200,000 cells per ml was added. After 1-3 days, the cells were expanded and isolated by FACS.

CDK8/19 = details: 1,000 nM cortistatin A; FIG. 7B
Experimental: Native kinome profiling was performed with MOLM-14 cell lysate according to the KiNativ Method by ActivX Biosciences. For each peptide quantified, the change in mass spectrometry signal for the treated samples relative to the signal for the control samples was expressed as percentage inhibition.

Caki-2 = test: Soft agar growth assay (Alamar Blue); details: clear cell renal cell carcinoma, Loss of function VHL mutation (VHL negative), 100 nM cortistatin A
Experimental: (§1) For the 62 cell lines 96 well suspension cell culture plates were prepared. 100 μL of the soft agar bottom layer (0.6% final concentration in complete medium) was poured and left to solidify. 50 μL of the soft agar top layer (0.4% final concentration) containing the corresponding cells and cell number were then added on top, solidified and incubated at 37° C., 10% CO2. After the soft agar had solidified, the test items were added at indicated final concentrations into the inner wells of the plate. Subsequently, the assay was incubated in cell culture incubators for 8 to 14 days. Finally, the assay was developed using Alamar Blue and upon 1-5 h of incubation at 37° C. fluorescence intensity was determined (excitation: 560 nm; emission: 590 nm). As low control, cells were treated with 1E-05M Staurosporine (6fold values). As high control, cells were treated with 0.1% DMSO (solvent control, 6 fold values).
(§2) Raw data were converted into percent soft agar growth relative to high controls (solvent 0.1% DMSO) and low controls (1E-05M Staurosporine), which were set to 100% and 0%, respectively.

HCC827 = test: Soft agar growth assay (Alamar Blue); details: Non small cell lung carcinoma, EGFR mutation, 100 nM cortistatin A
Experimental: as §1, §2

MKN-45 = test: Soft agar growth assay (Alamar Blue); details: Gastric cancer, MET amplification, 100 nM cortistatin A
Experimental: as §1, §2

SK-N-F1 = test: Soft agar growth assay (Alamar Blue); details: Neuroblastoma, 100 nM cortistatin A
Experimental: as §1, §2

SK-N-MC = test: Soft agar growth assay (Alamar Blue); details: Neuroblastoma, EWS-FLI1, 100 nM cortistatin A
Experimental: as §1, §2

U87MG = test: Soft agar growth assay (Alamar Blue); details: Glioma, Inactivating mutations in ETV1, FLL1 and SMC3, 100 nM cortistatin A
Experimental: as §1, §2

UKE-1 = test: Cellular proliferation assay (CellTiter-Glo); details: Homo sapiens, UKE1
Experimental: (§3) All suspension cells were plated (96-well) in triplicate at 5,000-30,000 cells per well for testing (n=3). Viable cell number was estimated after 3, 7 and 10 days by counting viable cells from one vehicle well, generating a cell dilution series, transferring 20 ml per well in duplicate to a 384-well plate, and performing a linear regression to CellTiter-Glo (Promega) response (SPECTRAmax M3, Molecular Devices). Cells from all wells were also fourfold diluted in media and transferred in duplicate for CellTiter-Glo measurement. On days 3 and 7, an equal volume for all wells was split-back with fresh media and compound, such that the resulting cell density for the vehicle well matched the initial seeding density. For days 7 and 10, estimated cell number represents the split-adjusted theoretical cell number. […] For growth assays with inhibitors, n=3 for each concentration with two independent experiments.

HL-60 = test: Cellular proliferation assay (CellTiter-Glo); details: Homo sapiens
Experimental: as §3

CMK-86 = test: Cellular proliferation assay (CellTiter-Glo); details: Homo sapiens
Experimental: as §3

MEG-01 = test: Cellular proliferation assay (CellTiter-Glo); details: Homo sapiens
Experimental: as §3

TF-1 = test: Cellular proliferation assay (CellTiter-Glo); details: Homo sapiens
Experimental: All suspension cells were plated (96-well) in triplicate at 5,000-30,000 cells per well for testing (n=3). Viable cell number was estimated after 3, 7 and 10 days by counting viable cells from one vehicle well, generating a cell dilution series, transferring 20 ml per well in duplicate to a 384-well plate, and performing a linear regression to CellTiter-Glo (Promega) response (SPECTRAmax M3, Molecular Devices). Cells from all wells were also fourfold diluted in media and transferred in duplicate for CellTiter-Glo measurement. On days 3 and 7, an equal volume for all wells was split-back with fresh media and compound, such that the resulting cell density for the vehicle well matched the initial seeding density. For days 7 and 10, estimated cell number represents the split-adjusted theoretical cell number. HCT116 were plated (96-well) in triplicate at 250 cells per well. Cells were incubated in the presence of vehicle, 1 μM paclitaxel, or compound. On day 7, CellTiter-Blue (Promega) response was measured and values were normalized to vehicle (100% growth) and paclitaxel (0% growth). For growth assays with inhibitors, n=3 for each concentration with two independent experiments.

K562 = test: Cellular proliferation assay (CellTiter-Glo); details: Homo sapiens
Experimental: as §3

ME-1 = test: Cellular proliferation assay (CellTiter-Glo); details: Homo sapiens, ME-1, 240 h
Experimental: as §3

SET-2 cells = test: SET-2 differentiation assay (CD41/CD61 flow cytometry); details: 50 nM cortistatin A, 3 days; FIG. 3
Experimental: Cell pellets were collected at 4° C., washed three times with cold PBS, and stained with anti-CD61-PE (ab91128) or anti-CD41-PerCP (ab134373) and analyzed by flow cytometry.

T2 sequence (P49336 whole entry W105M): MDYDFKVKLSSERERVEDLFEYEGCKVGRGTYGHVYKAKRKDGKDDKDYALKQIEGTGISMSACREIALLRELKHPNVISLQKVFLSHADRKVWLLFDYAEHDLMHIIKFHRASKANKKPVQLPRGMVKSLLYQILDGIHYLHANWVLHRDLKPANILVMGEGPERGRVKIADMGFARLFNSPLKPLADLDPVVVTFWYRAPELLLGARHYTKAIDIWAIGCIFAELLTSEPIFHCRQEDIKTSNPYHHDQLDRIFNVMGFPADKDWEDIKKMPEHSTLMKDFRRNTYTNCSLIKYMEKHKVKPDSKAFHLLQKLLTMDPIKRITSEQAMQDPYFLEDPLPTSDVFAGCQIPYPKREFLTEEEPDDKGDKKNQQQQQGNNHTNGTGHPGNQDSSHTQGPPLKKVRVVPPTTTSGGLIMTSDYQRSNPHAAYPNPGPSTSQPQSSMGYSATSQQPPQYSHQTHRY
T2 sequence (P24863 whole entry partner): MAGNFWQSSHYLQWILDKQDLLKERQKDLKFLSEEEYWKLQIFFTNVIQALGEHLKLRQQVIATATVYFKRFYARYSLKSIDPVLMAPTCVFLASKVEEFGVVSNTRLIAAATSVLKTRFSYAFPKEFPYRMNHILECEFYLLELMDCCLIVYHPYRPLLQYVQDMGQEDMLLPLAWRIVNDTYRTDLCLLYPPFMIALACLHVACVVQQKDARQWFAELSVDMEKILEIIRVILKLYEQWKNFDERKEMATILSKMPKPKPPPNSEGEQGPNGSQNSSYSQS
T1 sequence (P49336 whole entry): as the sequence (P49336 whole entry W105M) above, with M105W counted along it
T1 sequence (P24863 whole entry partner): as the sequence (P24863 whole entry partner) above

CN(C)[C@H]1C[C@@]23CC[C@@]4(O2)C(=CC[C@]2(C)[C@@H](c5ccc6ccncc6c5)CC[C@H]24)C=C3[C@@H](O)[C@@H]1O [Cortistatin A, cortistatin A]
leukemia cells in the lungs (haematoxylin and eosin staining) ([1]; MV4;11 AML mice, Day 30, FIG. 10): fewer leukemia cells in the lungs | spleen weight ([1]; female NSG mice, once daily IP for 15 days, measured 37 days after injection of cells, FIG. 6): prevents spleen weight increase | inhibition of CDK8/Cyclin C kinase activity (CDK8/Cyclin C): potently inhibits CDK8/Cyclin C | growth of MOLM-14 cells expressing drug resistant allele (CDK8 W105M): able to proliferate in the presence of cortistatin A | kinase selectivity (native kinase % inhibition) (CDK8/19): selectively inhibits CDK8/19 | % growth rel. to vehicle (Caki-2): 18% | % growth rel. to vehicle (HCC827): 23% | % growth rel. to vehicle (MKN-45): 27% | % growth rel. to vehicle (SK-N-F1): 30% | % growth rel. to vehicle (SK-N-MC): 45% | % growth rel. to vehicle (U87MG): 36% | GI50 (UKE-1): 7 nM | GI50 (HL-60): 7 nM | GI50 (CMK-86; CMK-86): 8 nM | GI50 (CMK-86; CMK-86, 240 h): 8 nM | GI50 (MEG-01; MEG-01): 9 nM | GI50 (MEG-01; MEG-01, 240 h): 9 nM | GI50 (TF-1): 350 nM | GI50 (K562; K562): > 1000 nM | GI50 (K562; K562, 240 h): > 1000 nM | GI50 (ME-1): 1 nM | differentiation of SET-2 cells (percent of cells with megakaryocytic markers CD41 and CD61) (SET-2 cells): induces differentiation of SET-2 cells

Reference: patent US20180135134A1, “TARGETED SELECTION OF PATIENTS FOR TREATMENT WITH CORTISTATIN DERIVATIVES” (President and Fellows of Harvard College, priority 2015, published 2018)
